Laboratory results taken from the supplement of paper PMC10307832.

Columns and labels:
Test in all cases: relative viability (nuclei count vs DMSO), 5 days (fraction); higher = more cells survive
PAC-1 + Navitoclax = compound: C=CCc1cccc(/C=N/NC(=O)CN2CCN(Cc3ccccc3)CC2)c1O [PAC-1] + CC1(C)CCC(c2ccc(Cl)cc2)=C(CN2CCN(c3ccc(C(=O)NS(=O)(=O)c4ccc(N[C@H](CCN5CCOCC5)CSc5ccccc5)c(S(=O)(=O)C(F)(F)F)c4)cc3)CC2)C1 [Navitoclax] (partner 0.5 µM)
Method in brief: (§1)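 Medians of duplicate plates are given as relative viability. That measure is the nuclei count in treated wells divided by the count in vehicle wells. Counts were taken on 4× images of lung cancer cell lines in 1536-well plates, 5 days after pin-tool dosing the day after seeding with one drug alone or a fixed anchor-drug dose plus five library-drug doses (not always all listed) in √10 steps.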

PAC-1 + Decitabine = compound: C=CCc1cccc(/C=N/NC(=O)CN2CCN(Cc3ccccc3)CC2)c1O [PAC-1] + Nc1ncn([C@H]2C[C@H](O)[C@@H](CO)O2)c(=O)n1 [Decitabine] (partner 2 µM)
Method in brief: as §1

Ibrutinib + Tozasertib = compound: C=CC(=O)N1CCC[C@@H](n2nc(-c3ccc(Oc4ccccc4)cc3)c3c(N)ncnc32)C1 [Ibrutinib] + Cc1cc(Nc2cc(N3CCN(C)CC3)nc(Sc3ccc(NC(=O)C4CC4)cc3)n2)n[nH]1 [Tozasertib] (partner 0.1 µM)
Method in brief: as §1

PAC-1 + Linsitinib = compound: C=CCc1cccc(/C=N/NC(=O)CN2CCN(Cc3ccccc3)CC2)c1O [PAC-1] + C[C@]1(O)C[C@@H](c2nc(-c3ccc4ccc(-c5ccccc5)nc4c3)c3c(N)nccn32)C1 [Linsitinib] (partner 1 µM)
Method in brief: as §1

Row | Cell Line | relative viability (PAC-1 + Navitoclax; first compound 0.02 µM) | relative viability (PAC-1 + Navitoclax; first compound 0.06325 µM) | relative viability (PAC-1 + Navitoclax; first compound 0.2 µM) | relative viability (PAC-1 + Navitoclax; first compound 2 µM) | relative viability (PAC-1 + Decitabine; first compound 0.02 µM) | relative viability (PAC-1 + Decitabine; first compound 0.06325 µM) | relative viability (PAC-1 + Decitabine; first compound 0.2 µM) | relative viability (PAC-1 + Decitabine; first compound 2 µM) | relative viability (Ibrutinib + Tozasertib; first compound 0.005 µM) | relative viability (Ibrutinib + Tozasertib; first compound 0.01581 µM) | relative viability (Ibrutinib + Tozasertib; first compound 0.05 µM) | relative viability (Ibrutinib + Tozasertib; first compound 0.1581 µM) | relative viability (Ibrutinib + Tozasertib; first compound 0.5 µM) | relative viability (PAC-1 + Linsitinib; first compound 0.02 µM) | relative viability (PAC-1 + Linsitinib; first compound 0.06325 µM) | relative viability (PAC-1 + Linsitinib; first compound 0.2 µM) | relative viability (PAC-1 + Linsitinib; first compound 2 µM)
1 | 201T | 1.21 | 1.23 | 1.21 | 1.16 | 0.854 | 0.85 | 0.836 | 0.861 | 0.984 | 0.916 | 0.971 | 0.959 | 0.849 | 1.08 | 0.991 | 1.02 | 1
2 | A549 | 1.25 | 1.18 | 1.14 | 1.23 | 0.342 | 0.267 | 0.138 | 0.253 | – | – | – | – | – | 0.527 | 0.612 | 0.523 | 0.583
3 | A-427 | 1 | 0.92 | 0.908 | 0.907 | 0.602 | 0.56 | 0.532 | 0.542 | 0.22 | 0.185 | 0.281 | 0.23 | 0.212 | 1.14 | 1.14 | 1.15 | 1.08
4 | ABC-1 | – | – | – | – | 0.809 | 1.06 | 1.05 | 1.16 | 0.151 | 0.149 | 0.159 | 0.198 | 0.187 | 0.791 | 0.746 | 0.822 | 1.02
5 | BEN | 0.0891 | 0.0706 | 0.0845 | 0.0674 | 0.644 | 0.72 | 0.613 | 0.642 | – | 0.459 | 0.471 | 0.561 | 0.536 | 0.934 | 0.91 | 0.918 | 0.873
6 | CAL-12T | 1.43 | 1.21 | 1.31 | 1.26 | – | – | – | – | 0.324 | 0.309 | 0.268 | 0.365 | 0.151 | 0.925 | 0.823 | 0.669 | 0.808
7 | COR-L23 | 0.874 | 0.984 | 0.908 | 0.999 | 0.487 | 0.428 | – | 0.418 | 0.209 | 0.214 | 0.247 | 0.227 | 0.181 | 0.945 | 0.937 | 0.861 | 1.03
8 | COR-L 105 | 0.852 | 0.725 | 1.38 | 0.841 | 0.63 | 0.71 | 0.707 | 0.696 | 0.35 | 0.337 | 0.339 | 0.373 | 0.303 | 0.962 | 0.852 | 0.868 | 1.13
9 | Calu-6 | 0.817 | 0.861 | 0.878 | 0.855 | – | – | – | – | – | – | – | – | – | 0.826 | 0.902 | – | 0.962
10 | ChaGo-K-1 | 1.2 | 1.08 | 1.21 | 1.08 | 0.522 | 0.506 | 0.458 | 0.54 | 0.228 | 0.218 | 0.212 | 0.232 | 0.22 | – | – | – | –
11 | EBC-1 | 0.382 | 0.336 | 0.443 | 0.33 | – | – | – | – | – | – | – | – | – | 0.832 | 0.923 | 0.821 | 0.86
12 | EKVX | 1.07 | 0.926 | 0.86 | 0.979 | 0.216 | 0.315 | 0.378 | 0.319 | 0.427 | 0.332 | 0.4 | 0.426 | 0.269 | 1.03 | 1.02 | 0.941 | 0.917
13 | EMC-BAC-2 | 1.14 | 1.22 | 1.19 | 1.14 | 0.924 | 0.989 | 0.895 | 1.01 | 0.303 | 0.295 | 0.31 | 0.325 | 0.286 | 0.8 | 0.815 | 0.825 | 0.82
14 | EPLC-272H | – | 1.09 | 1 | 1.04 | 0.369 | 0.39 | 0.342 | 0.324 | 0.171 | 0.171 | 0.25 | 0.126 | 0.193 | – | 1.14 | 0.934 | 1.07
15 | H3255 | 0.544 | 0.537 | 0.561 | 0.595 | 0.593 | 0.849 | 0.534 | 0.63 | 0.729 | 0.615 | 0.581 | 0.672 | 0.312 | 1.05 | 0.952 | 0.862 | 0.913
16 | HARA | 1.15 | 1.11 | 1.14 | 1.15 | 0.573 | 0.688 | 0.507 | 0.487 | 0.0994 | 0.117 | 0.0863 | 0.0992 | 0.096 | 0.873 | 0.958 | 0.851 | 1.09
17 | HCC-15 | 0.735 | 0.685 | 0.676 | 0.74 | 0.628 | 0.685 | 0.56 | 0.599 | 0.464 | 0.413 | 0.563 | 0.396 | 0.357 | 0.967 | 0.876 | 0.795 | 0.935
18 | HCC-44 | 1.01 | 0.977 | 0.978 | 1.01 | 1.03 | 0.914 | 0.855 | 0.933 | 1.1 | 0.945 | 0.734 | – | 0.998 | 0.684 | 0.68 | 0.678 | 0.712
19 | HCC-78 | 0.719 | 0.748 | 0.699 | 0.646 | 0.749 | 0.639 | 0.529 | 0.649 | 0.577 | 0.327 | 0.434 | 0.494 | 0.343 | 0.565 | 0.607 | 0.544 | 0.467
20 | HCC-366 | 1.13 | 1.01 | 1.1 | 1.09 | 0.373 | 0.303 | 0.264 | 0.337 | 0.127 | 0.116 | 0.107 | 0.118 | 0.0964 | 0.587 | 0.699 | 0.441 | 0.772
21 | HCC-827 | 1.04 | 0.986 | 0.983 | 0.989 | 0.354 | 0.285 | 0.277 | 0.292 | 0.396 | 0.39 | 0.513 | 0.437 | 0.224 | 0.981 | 0.966 | 0.932 | 0.942
